From patent US11147272B2, “Pyridone compounds and agricultural and horticultural fungicides comprising the same as active ingredients” (MITSUI CHEMICALS AGRO, INC., priority 2017, dated 2021)

Columns and labels:
Plasmopara viticola = test: Test Example G: Downy mildew on vine; conditions: for Test G control value: 7 to 10 days after inoculation; for Test G control value class: Downy mildew on vine (Neomuscat), 2.5 ml/pot, assessed 7 to 10 days after inoculation
[1] = tested on: Colletotrichum orbiculare; test: Test Example H: Anthracnose on cucumber; conditions: for Test H control value: 6 to 10 days after inoculation; for Test H control value class: Anthracnose on cucumber (Sagami Hanjiro), 2.5 ml/pot, assessed 6 to 10 days after inoculation
Phytophthora infestans = test: whole plant or invertebrate; format: in vivo; conditions: for Test F control value class: class of control value
Botrytis cinerea = test: Test Example B: Gray mold on tomato; conditions: for Test B control value class: class of control value
Protocol: Seeds of a test plant (tomato variety: Oogata Fukuju) were planted and cultivated until three to five first leaves (true leaves) appeared. In the test, the inventive compounds were dissolved into dimethyl sulfoxide-methanol mixture solution (volume ratio: 9/1), and the resultant solutions were diluted with well water to a concentration of 250 ppm to obtain the drug solutions. The drug solutions were sprayed to the test plant (2.5 ml/pot). After the drug solutions dried, a conidial suspension (4-8×10^5 conidia/ml) of Botrytis cinerea was inoculated to the plant by spraying. After the inoculation, the plant was kept in a mist chamber at room temperature of 20 to 23° C. for about 48 hours to promote the onset of disease. The degrees of disease development were investigated 2 to 3 days after the inoculation, and the effectiveness of the drug solutions was evaluated.
In Test Examples described above, the degrees of disease development were evaluated in increments of 0.05 from 0 (as no incidence of disease) to 3 (as the degree of disease development in an untreated plant group). Further, control values were calculated using the following equation based on the degree of disease development.
n=Degree of disease development in each treated group
In the table, H: more than 50% control value, L: 50% or less control value, and nt: not tested.

Alternaia brassicicola = test: Test Example C: Alternaria sooty spot on cabbage; format: in vivo
Text: Seeds of a test plant (cabbage variety: Shikidori) were planted and cultivated until the cotyledons extended.
<Control Value> Control value=100{1−(n/3)}

Magnaporthe grisea = test: whole plant or invertebrate; format: in vivo; conditions: for Test A control value class: class of control value
Puccinia recondita = test: Test Example E: Brown rust on wheat; format: in vivo
[2] = tested on: Blumeria graminis f. sp. hordei; test: Test Example D: Powdery mildew on barley; conditions: for Test D control value class: class of control value
[3] = 250 ppm drug solution sprayed (2.5 ml/pot), grape Neomuscat
[4] = 250 ppm drug solution sprayed (2.5 ml/pot), cucumber Sagami Hanjiro
[5] = 250 ppm drug solution sprayed on test plant
[6] = Alternaria sooty spot on cabbage, class of control value
[7] = Brown rust on wheat, class of control value
[8] = Downy mildew on vine, 250 ppm spray
[9] = Anthracnose on cucumber, 250 ppm spray
[10] = Late blight on tomato, control value class
[11] = Gray mold on tomato, control value class
[12] = Alternaria sooty spot on cabbage, control value class
[13] = Blast on rice, control value class
[14] = Brown rust on wheat, control value class
[15] = Powdery mildew on barley, control value class

Row | SMILES | Test G control value class (Plasmopara viticola; 250 ppm spray) | Test H control value class ([1]; 250 ppm spray) | Test F control value class (Phytophthora infestans; Late blight on tomato) | Test B control value class (Botrytis cinerea; Gray mold on tomato) | Test C control value class (Alternaia brassicicola; [6]) | Test A control value class (Magnaporthe grisea; Blast on rice) | Test E control value class (Puccinia recondita; [7]) | Test D control value class ([2]; Powdery mildew on barley) | Test G control value (Plasmopara viticola; [8]) | Test H control value [1, 9] | Test F control value (Phytophthora infestans; [10]) | Test B control value (Botrytis cinerea; [11]) | Test C control value (Alternaia brassicicola; [12]) | Test A control value (Magnaporthe grisea; [13]) | Test E control value (Puccinia recondita; [14]) | Test D control value [2, 15] | also measured
1 | COC(c1cc(Cl)c(=O)n(C)c1-c1c(F)cc(F)cc1F)C(C)C (stereo not drawn) [compound 496] |  |  |  |  |  |  |  |  |  |  |  |  |  |  |  |  | Test G control value (Plasmopara viticola; [3]): H (more than 50% control value); Test H control value [1, 4]: H (more than 50% control value); Test F control value (Phytophthora infestans; [5]): L (50% or less control value); Test B control value (Botrytis cinerea; [5]): H (more than 50% control value); Test C control value (Alternaia brassicicola; [5]): H (more than 50% control value); Test A control value (Magnaporthe grisea; [5]): H (more than 50% control value); Test E control value (Puccinia recondita; [5]): H (more than 50% control value); Test D control value [2, 5]: H (more than 50% control value)
2 | CCC(O)c1ccc(=O)n(CC)c1-c1c(F)cc(F)cc1F (racemic) [compound 469] |  |  |  |  |  |  |  |  |  |  |  |  |  |  |  |  | Test G control value (Plasmopara viticola; [3]): L (50% or less control value); Test H control value [1, 4]: H (more than 50% control value); Test F control value (Phytophthora infestans; [5]): L (50% or less control value); Test B control value (Botrytis cinerea; [5]): H (more than 50% control value); Test C control value (Alternaia brassicicola; [5]): H (more than 50% control value); Test A control value (Magnaporthe grisea; [5]): L (50% or less control value); Test E control value (Puccinia recondita; [5]): L (50% or less control value); Test D control value [2, 5]: L (50% or less control value)
3 | CCn1c(-c2c(F)cc(OC)cc2F)c(C(CC(C)C)OC)cc(Cl)c1=O (stereo not drawn) [compound 87] | L (50% or less control value) | H (more than 50% control value) | L (50% or less control value) | H (more than 50% control value) | H (more than 50% control value) | L (50% or less control value) | H (more than 50% control value) | H (more than 50% control value) |  |  |  |  |  |  |  |  | 
4 | CCn1c(-c2ccc(F)cc2Cl)c(C)ccc1=O [compound 279] |  |  |  |  |  |  |  |  | L (50% or less control value) | L (50% or less control value) | L (50% or less control value) | L (50% or less control value) | L (50% or less control value) | L (50% or less control value) | L (50% or less control value) | H (more than 50% control value) | 
5 | CCn1c(-c2ccc(F)cc2)c(CC(C)C)cc(Br)c1=O [compound 148] | H (more than 50% control value) | H (more than 50% control value) | L (50% or less control value) | H (more than 50% control value) | H (more than 50% control value) | H (more than 50% control value) | H (more than 50% control value) | H (more than 50% control value) |  |  |  |  |  |  |  |  | 
6 | CCn1c(-c2c(F)cc(F)cc2F)c(C(C)C)cc(Cl)c1=O [Compound No. 8, 3-chloro-1-ethyl-5-isopropyl-6-(2,4,6-trifluorophenyl)pyridin-2(1H)-one] |  |  |  |  |  |  |  |  |  |  |  |  |  |  |  |  | pest or weed control at 250 ppm (Plasmopara viticola; Plasmopara viticola, topical, read-out: Test G control value class): < 50%; pest or weed control at 250 ppm ([1]; Colletotrichum orbiculare, in Cucumis sativus, topical, read-out: Test H control value class): > 50%; pest or weed control at 250 µg/mL (Phytophthora infestans; Phytophthora infestans, in Solanum lycopersicum, topical, read-out: Test F control value class): < 50%; pest or weed control at 250 µg/mL (Botrytis cinerea; Botrytis cinerea, in Solanum lycopersicum, topical, read-out: Test B control value class): > 50%; pest or weed control at 250 µg/mL (Alternaia brassicicola; Brassica oleracea, topical, Alternaria sooty spot on cabbage, class of control value, read-out: Test C control value class): > 50%; pest or weed control at 250 µg/mL (Magnaporthe grisea; Pyricularia oryzae, in Oryza sativa, read-out: Test A control value class): > 50%; pest or weed control at 250 µg/mL (Puccinia recondita; Puccinia recondita, topical, Brown rust on wheat, class of control value, read-out: Test E control value class): > 50%; pest or weed control at 250 µg/mL ([2]; Blumeria graminis, in Hordeum vulgare, topical, read-out: Test D control value class): > 50%
7 | CCCc1cc(Br)c(=O)n(C)c1-c1ccc(F)cc1Br [compound 415] |  |  |  |  |  |  |  |  |  |  |  |  |  |  |  |  | Test G control value (Plasmopara viticola; [3]): L (50% or less control value); Test H control value [1, 4]: L (50% or less control value); Test F control value (Phytophthora infestans; [5]): L (50% or less control value); Test B control value (Botrytis cinerea; [5]): H (more than 50% control value); Test C control value (Alternaia brassicicola; [5]): H (more than 50% control value); Test A control value (Magnaporthe grisea; [5]): H (more than 50% control value); Test E control value (Puccinia recondita; [5]): H (more than 50% control value); Test D control value [2, 5]: L (50% or less control value)
8 | CCn1c(-c2c(F)cc(F)cc2F)c(C(C)C)cc(Br)c1=O [compound 9] | H (more than 50% control value) | H (more than 50% control value) | L (50% or less control value) | H (more than 50% control value) | H (more than 50% control value) | H (more than 50% control value) | H (more than 50% control value) | H (more than 50% control value) |  |  |  |  |  |  |  |  | 
9 | CCn1c(-c2ccc(OC)cc2)c(CC(C)C)cc(Br)c1=O [compound 196] |  |  |  |  |  |  |  |  | L (50% or less control value) | H (more than 50% control value) | L (50% or less control value) | H (more than 50% control value) | H (more than 50% control value) | H (more than 50% control value) | H (more than 50% control value) | L (50% or less control value) | 
10 | CCn1c(-c2ccc(OCC3CC3)cc2F)c(CC(C)C)cc(Cl)c1=O [compound 129] | H (more than 50% control value) | L (50% or less control value) | L (50% or less control value) | H (more than 50% control value) | H (more than 50% control value) | L (50% or less control value) | H (more than 50% control value) | H (more than 50% control value) |  |  |  |  |  |  |  |  | 
11 | CCCOC(C)(c1cc(Cl)c(=O)n(CC)c1-c1c(F)cc(F)cc1F)C1CCCC1 (stereo not drawn) [compound 257] |  |  |  |  |  |  |  |  | L (50% or less control value) | H (more than 50% control value) | L (50% or less control value) | L (50% or less control value) | H (more than 50% control value) | L (50% or less control value) | L (50% or less control value) | L (50% or less control value) | 
12 | CCn1c(-c2c(F)cccc2F)c(CO)cc(Cl)c1=O [compound 44] | L (50% or less control value) | L (50% or less control value) | L (50% or less control value) | H (more than 50% control value) | H (more than 50% control value) | L (50% or less control value) | H (more than 50% control value) | L (50% or less control value) |  |  |  |  |  |  |  |  | 
13 | CCn1c(-c2c(F)cccc2F)c(C(C)(C)O)cc(Cl)c1=O [compound 23] | L (50% or less control value) | H (more than 50% control value) | L (50% or less control value) | H (more than 50% control value) | H (more than 50% control value) | H (more than 50% control value) | H (more than 50% control value) | H (more than 50% control value) |  |  |  |  |  |  |  |  | 
14 | CCn1c(-c2c(F)cc(F)cc2F)c(C(=O)C2CC2)cc(Cl)c1=O [compound 260] |  |  |  |  |  |  |  |  | L (50% or less control value) | H (more than 50% control value) | H (more than 50% control value) | H (more than 50% control value) | H (more than 50% control value) | H (more than 50% control value) | H (more than 50% control value) | H (more than 50% control value) | 
15 | CCCCC(=O)c1cc(Cl)c(=O)n(CC)c1-c1c(F)cc(F)cc1F [compound 277] |  |  |  |  |  |  |  |  | H (more than 50% control value) | H (more than 50% control value) | L (50% or less control value) | H (more than 50% control value) | H (more than 50% control value) | H (more than 50% control value) | H (more than 50% control value) | H (more than 50% control value) | 
